Blank lines part the entries; values can stand above or below the compound they belong to. Non-standard residues stand in square brackets, D forms with d. Residues, ends and D or L forms follow the SMILES beside them. No end group written: not given here. *: point of attachment. Acetyl(1-adamantyl) = O=C(CC12CC3CC(CC(C3)C1)C2)*; Hyp = O=C(O)[C@@H]1C[C@@H](O)CN1; 2Thi = N[C@@H](Cc1cccs1)C(=O)O; Ac6c = NC1(C(=O)O)CCCCC1
How the values were obtained:
[1] = Stability test in human plasma; conditions: for stability in human plasma (in words): 0.4 mg/mL, 37 °C, up to 24 h, TCA or formic acid/urea procedure depending on peptide, RP-HPLC 223 nm, at least triplicates
Protocol: To check the stability of the studied peptides in human plasma, 24 h incubation of peptides in the appropriate medium was performed. For the studies, two methods were used. The first one involved the presence of trichloroacetic acid (TCA) as a protein precipitating reagent, while the second one involved a mixture of formic acid and urea. […] The procedure with the mixture of the formic acid and urea was used for BK-3, BK-4, BK-6, and BK-8.
• A. TCA procedure for peptides: BK, BK-1, BK-2, BK-5, BK-7, NT, and NT analogues.
Peptide stability tests were performed according to a TCA stability assay based on the method used by Nguyen et al.. Peptides were dissolved in water, mixed with 25% human plasma to a final concentration of 0.4 mg/mL, and incubated at 37 °C with agitation (300 rpm, Thermomixer, Eppendorf AG, Hamburg, Germany). After 0, 1, 2, 3, 4, and 24 h, […] of the solution was taken and mixed with 15% TCA to obtain a final concentration of 3% (v/v). The samples were incubated in ice for 10 min and centrifuged for 10 min (12,000 rpm, Microfuge 16, Beckman Coulter, Brea, CA, USA).
In the second method, peptides were dissolved in water, mixed with 25% human plasma to a final concentration 0.4 mg/mL, and incubated at 37 °C with agitation (300 rpm, Thermomixer, Eppendorf AG, Hamburg, Germany). After 0, 1, 2, 3, 4, and 24 h, […] of the solution was taken and mixed with 25 μL of a mixture of 1050 µL 6 M urea, 330 µL formic acid, and 120 µL water to a final peptide concentration of 0.4 mg/mL. The samples were incubated in ice for 10 min and centrifuged for 10 min (12,000 rpm, Microfuge 16, Beckman Coulter, Brea, CA, USA). Supernatants were analyzed by RP-HPLC on column Kinetex (2.6 µm, XB-C18 100 Å 150 × 2.1 mm) (Phenomenex, Torrance, CA, USA) using a linear gradient of acetonitrile (1–80% over 20 min) with detection at 223 nm. Peptides were quantified by their peak areas relative to the initial peak areas (0 min). All stability tests were performed at least in triplicates. As control samples, peptides dissolved only in water under the same conditions were used.

[2] = test system: HCT116 cells; assay: Flow cytometry phenotype (CD133, CD44, CD29), HCT116 colonospheres; format: cell-based, human; conditions: spherical HCT116, 500 µg/mL, 24 h, vs untreated control, n = 5
Protocol: Figure 4 The phenotype of the colorectal cancer HCT116 cell line expanded in the form of colonospheres and treated with (A,C,E) bradykinin and (B,D,F) neurotensin analogues (500 µg/mL) for 24 h. The data are presented as fold change of frequency of cells with given phenotype in relation to untreated control cells. The control value is set at a level of 1. Bars and whiskers represent the median with min–max values (* p < 0.05 vs. untreated control cells; • p < 0.05 vs. BK treated cells; ANOVA Kruskal–Wallis test, n = 5).
Similarly as for the adherent HTC116 cells, we also tested the spherical form with respect to the presence of CD29 and CD44 integrins on their surface but not only in CD133+ (Figure 4C,D) but also in CD133 (Figure 4E,F). In these studies, the count of CD133+, CD44+, and CD29+ cells was not affected in spherical culture, while at the same time, we observed that CSCs in colonospheres were more likely to change the level of these markers within the CD133-negative population. […] In contrast, the analogues BK-4, BK-6, and BK-8 decreased the number of these cells.
HCT116 in both adherent (5 × 10^4 cells/mL in 24-well plate) and spherical forms (8 × 10^5/mL cells in 24-well ultra-low attachment plates) were maintained in appropriate medium. […]

[3] = test system: HCT116 cells; assay: Cell death assay (7-AAD, flow cytometry), spherical HCT116 cells; format: cell-based, human; conditions: spherical HCT116, 500 µg/mL, 24 h, vs untreated control, n = 4
Source text: We evaluated the percentage of nonviable cells of HTC116 following analogue treatment via a flow cytometric assay using 7-Amino Actinomycin D (7-AAD) dye according to the procedure presented in the Materials and Methods Section 4.6. This dye is excluded by living cells but binds selectively to the DNA of damaged permeabilized cells. We learned that the number of 7AAD-positive cells changed according to different scenarios in CRC cells cultured in adherent and spherical forms following the incubation with BK and NT analogues (Figure 6).
Figure 6 Analysis of the viability of colorectal cancer HCT116 cells expanded in spherical (A,B) or adherent (C,D) form and treated with bradykinin (A,C) and neurotensin analogues (B,D) (500 µg/mL) for 24 h. Cells were incubated with 7-AAD and analyzed by flow cytometry. The y-axis presents the fold increase in the frequency of 7-AAD+ cells compared to untreated control cells. (* p < 0.05 vs. untreated control cells; • p < 0.05 vs. BK/NT-treated cells; ANOVA Kruskal–Wallis test, n = 4). Data presented as bars and whiskers representing the median with min–max values).
Following BK and NT analogue treatment of HCT116 cells, we evaluated the proportion of dead cells in our samples. For this purpose, we used a 7AAD Via Probe (BD Biosciences, San Jose, CA, USA). […]

stability in human plasma (in words) ([1]; 25% human plasma): most stable
Compound: N=C(N)NCCC[C@@H](N)C(=O)N[C@@H](CCCNC(=N)N)C(=O)N1CCC[C@H]1C(=O)N1C[C@H](O)C[C@H]1C(=O)NCC(=O)N[C@@H](Cc1cccs1)C(=O)N[C@@H](CO)C(=O)N[C@H](Cc1ccccc1)C(=O)NC1(C(=O)N[C@@H](CCCNC(=N)N)C(=O)O)CCCC1 [BK-2] (HELM PEPTIDE1{[dR].R.P.[Hyp].G.[O=C([C@H](Cc1cccs1)N[*:1])[*:2]].S.[dF].[O=C(C1(N[*:1])CCCC1)[*:2]].R}$$$$V2.0)

stability in human plasma (in words) ([1]; 25% human plasma): least stable | remaining at 24 h, 0.4 mg/mL ([1]; human, 25% human plasma): ~40%
Compound: N=C(N)NCCC[C@H](NC(=O)[C@H](Cc1cccs1)NC(=O)C1(NC(=O)[C@H](CO)NC(=O)[C@H](Cc2cccs2)NC(=O)CNC(=O)[C@@H]2C[C@@H](O)CN2C(=O)[C@@H]2CCCN2C(=O)[C@H](CCCNC(=N)N)NC(=O)[C@@H](CCCNC(=N)N)NC(=O)CC23CC4CC(CC(C4)C2)C3)CCCCC1)C(=O)O [BK-3]

stability in human plasma (in words) ([1]; 25% human plasma): most stable
Compound: N=C(N)NCCC[C@H](NC(=O)C1(NC(=O)[C@@H](Cc2ccccc2)NC(=O)[C@H](CO)NC(=O)[C@H](Cc2cccs2)NC(=O)CNC(=O)[C@@H]2C[C@@H](O)CN2C(=O)[C@@H]2CCCN2C(=O)[C@H](CCCNC(=N)N)NC(=O)[C@@H](CCCNC(=N)N)NC(=O)CC23CC4CC(CC(C4)C2)C3)CCCCC1)C(=O)O [BK-4] ({Acetyl(1-adamantyl)}-[dR]RP[Hyp]G[2Thi]S[dF][Ac6c]R-OH)

stability in human plasma (in words) ([1]; 25% human plasma): most stable
Compound: N=C(N)NCCC[C@@H](N)C(=O)N[C@@H](CCCNC(=N)N)C(=O)N1CCC[C@H]1C(=O)N1C[C@H](O)C[C@H]1C(=O)NCC(=O)N[C@@H](Cc1cccs1)C(=O)N[C@@H](CO)C(=O)N[C@H](Cc1ccccc1)C(=O)N1CCCC[C@H]1C(=O)N[C@@H](CCCNC(=N)N)C(=O)O [BK-5] (HELM PEPTIDE1{[dR].R.P.[Hyp].G.[O=C([C@H](Cc1cccs1)N[*:1])[*:2]].S.[dF].[O=C([C@@H]1CCCCN1[*:1])[*:2]].R}$$$$V2.0)

remaining at 24 h, 0.4 mg/mL ([1]; human, 25% human plasma): 70%
Compound: N=C(N)NCCC[C@H](NC(=O)[C@H](Cc1cccs1)NC(=O)[C@H]1CCCCN1C(=O)[C@H](CO)NC(=O)[C@H](Cc1cccs1)NC(=O)CNC(=O)[C@@H]1C[C@@H](O)CN1C(=O)[C@@H]1CCCN1C(=O)[C@H](CCCNC(=N)N)NC(=O)[C@@H](CCCNC(=N)N)NC(=O)CC12CC3CC(CC(C3)C1)C2)C(=O)O [BK-8]

stability in human plasma (in words) ([1]; 25% human plasma): better stability than the native peptide
Compound: CC(C)C[C@H](NC(=O)[C@@H](NC(=O)[C@H](Cc1ccc(O)cc1)NC(=O)[C@@H]1CCCN1C(=O)[C@H](CCCCN)NC(=O)[C@H](CCCCN)NC(=O)CNC(=O)[C@H](CCC(=O)O)NC(=O)[C@@H]1CCCN1)C(C)(C)C)C(=O)O [NT-14] (HELM PEPTIDE1{P.E.G.K.K.P.Y.[CC(C)(C)[C@H](N[*:1])C(=O)[*:2]].L}$$$$V2.0)

Compound: Neurotensin [NT]
CD133-CD44+CD29+ cell count in colonospheres [2]: significantly increasing | number of nonviable 7AAD+ cells, spherical form [3]: prominently increased

Compound: RPPGFSPFR [BK, Bradykinin]
remaining at 4 h, 0.4 mg/mL ([1]; human, plasma): 96% | remaining at 24 h, 0.4 mg/mL ([1]; human, plasma): ~50%
